From PubChem BioAssay AID2060605 (Molecular Pharmacology Branch, DTP, NCI, 2025)
pIC50: −log10 of the molar value. “And” between values parts separate entries of the source, which are not always exact repeats. Identical values can stand only once. Blank lines part the entries; values can stand above or below the compound they belong to.

Tested on: 947758-054-R-J2-PDC spheroid growth, percent test/control
Experiment: Anticancer human tumor 947758-054-R-J2-PDC patient-derived colon adenocarcinoma cell line growth inhibition [CLK]
Details: spheroids with HUVEC and MSC; for viability, T/C: stronger effect = lower value
From the text: A high-throughput screen of multi-cell type tumor spheroids was designed to identify active combinations of […] and targeted small molecules. Complex spheroids include a stromal component modeled by human endothelial cells (HUVEC) and fibroblasts modeled by human mesenchymal stem cells (MSCs). The concentration ranges selected for each drug and investigational agent were based upon clinically achievable concentrations if the clinical Cmax of the agent was known.
Compounds. The drugs and investigational agents: cirtuvivint (SM08502; NSC835563), CC-671 (NSC850746), vemurafenib (NSC761431), tapotoclax (NSC804041), sotorasib (NSC818433), adagrasib (NSC831453), MRTX-1133 (NSC836407), BAY2416964 (NSC825713), copanlisib (NSC816437), inavolisib (NSC800729), abemaciclib (NSC768073), osimertinib (NSC779217), entinostat (NSC756642), eltanexor (KPT-8602, NSC794443), venetoclax (NSC766270), ceralasertib (NSC777638), bortezomib (NSC756655), olaparib (NSC753686), talazoparib (NSC767125), alisertib (NSC759677), peposertib (NSC802822), gemcitabine (NSC613327), 5-fluorouracil (NSC19893), SN-38 (NSC673596), oxaliplatin (NSC266046), paclitaxel (NSC125973), and doxorubicin (NSC123127), were obtained from the National Cancer Institute (NCI) Developmental Therapeutics Program Chemical Repository. The FDA-approved anticancer drug set is available from the Developmental Therapeutics Program at https://dtp.cancer.gov/organization/dscb/obtaining/available plates.htm. […] The stock solutions were prepared in dimethyl sulfoxide (DMSO, Sigma-Aldrich, St. Louis, MO, cat. D2650), except for the platinum complexes which were prepared in saline (Quality Biological, Gaithersburg, MD, cat. 114-055-101), at 800-fold the tested concentration and stored at -70 degrees C prior to their use. All drugs and investigational agents were tested over a range starting from a high concentration at or near the clinical Cmax and decreasing in half-log increments. If the clinical Cmax for an agent had not been determined, the highest concentration tested was 10 microM.
Cell Culture. All cells were maintained in an incubator at 37 degrees C and 5% CO2 with 95% humidity. The PDC lines were cultured according to standard operating procedures established by the NCI PDMR. Briefly, all PDCs were thawed and cultured in Matrigel-coated flasks prepared with a working solution of 1X Ham's F-12 nutrient mix, without supplementation (Invitrogen, Waltham, MA, cat. 11765054), 100 U/mL penicillin-streptomycin (Invitrogen, cat. 15140122), and 2.5% Matrigel (Corning Inc., Corning, NY, cat. 354248) for the first three passages. The 947758-054-R-J2-PDC line was cultured in 6B/Colon 1A media, which includes advanced DMEM/F-12 (Thermo Fisher Scientific, cat. 12634028), 10 mM HEPES (Thermo Fisher Scientific, cat. 15630080), 1X GlutaMAX supplement (Thermo Fisher Scientific, cat. 35050061), 0.1 mg/mL primocin (InvivoGen, cat. ant-pm-2), 10% defined fetal bovine serum, heat inactivated (HyClone Laboratories Inc., cat. SH30070.03HI), 1.25 mM N-Acetyl-L-cysteine (Sigma-Aldrich, cat. A9165), 10 mM nicotinamide (Sigma-Aldrich, cat. N0636), 1X B-27 supplement (Thermo Fisher Scientific, cat. 17504044), 1X N-2 supplement (Thermo Fisher Scientific, cat. 17502048), and 10 microM Y-27632 dihydrochloride (Tocris Bioscience, cat. 1254). The 876862-298-R-J1-PDC was cultured in 6E media, which includes all 6B/Colon 1A media components plus 50% L-WRN conditioned media (ATCC, cat. CRL-3276), 50 ng/mL recombinant human EGF recombinant protein (hEGF; Thermo Fisher Scientific, cat. PHG0311), 10 ng/mL recombinant human fibroblast growth factor 10 (hGFG-10; PeproTech, cat. 100-26), 1 ng/mL recombinant human fibroblast growth factor 2 (hFGF-2; PeproTech, cat. 100-18B), and 1 µM prostaglandin E2 (PGE2; Tocris, cat. 2296). The 227483-062-R1-J1-PDC line was cultured in Panc media, containing all 6E components except hFGF-2, with the addition of 500 nM SB-431542 (Selleckchem, cat. S1067) and 10 nM gastrin (Tocris, cat. 3006). […]

[1] = curve of first compound, second compound 0.0316 µM
[2] = curve of first compound, second compound 0.1 µM
[3] = curve of first compound, second compound 0.316 µM
[4] = curve of first compound, second compound 1 µM
[5] = curve of first compound, second compound 3.16 µM
[6] = curve of first compound, second compound 10 µM
[7] = second compound 0.0316 µM, first compound 0.0316 µM
[8] = second compound 0.0316 µM, first compound 0.1 µM
[9] = second compound 0.0316 µM, first compound 0.316 µM
[10] = second compound 0.0316 µM, first compound 1 µM
[11] = second compound 0.0316 µM, first compound 3.16 µM
[12] = second compound 0.0316 µM, first compound 10 µM
[13] = second compound 0.1 µM, first compound 0.0316 µM
[14] = second compound 0.1 µM, first compound 0.1 µM
[15] = second compound 0.1 µM, first compound 0.316 µM
[16] = second compound 0.1 µM, first compound 1 µM
[17] = second compound 0.1 µM, first compound 3.16 µM
[18] = second compound 0.1 µM, first compound 10 µM
[19] = second compound 0.316 µM, first compound 0.0316 µM
[20] = second compound 0.316 µM, first compound 0.1 µM
[21] = second compound 0.316 µM, first compound 0.316 µM
[22] = second compound 0.316 µM, first compound 1 µM
[23] = second compound 0.316 µM, first compound 3.16 µM
[24] = second compound 0.316 µM, first compound 10 µM
[25] = second compound 1 µM, first compound 0.0316 µM
[26] = second compound 1 µM, first compound 0.1 µM
[27] = second compound 1 µM, first compound 0.316 µM
[28] = second compound 1 µM, first compound 1 µM
[29] = second compound 1 µM, first compound 3.16 µM
[30] = second compound 1 µM, first compound 10 µM
[31] = second compound 3.16 µM, first compound 0.0316 µM
[32] = second compound 3.16 µM, first compound 0.1 µM
[33] = second compound 3.16 µM, first compound 0.316 µM
[34] = second compound 3.16 µM, first compound 1 µM
[35] = second compound 3.16 µM, first compound 3.16 µM
[36] = second compound 3.16 µM, first compound 10 µM
[37] = second compound 10 µM, first compound 0.0316 µM
[38] = second compound 10 µM, first compound 0.1 µM
[39] = second compound 10 µM, first compound 0.316 µM
[40] = second compound 10 µM, first compound 1 µM
[41] = second compound 10 µM, first compound 3.16 µM
[42] = second compound 10 µM, first compound 10 µM
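Also: spheroids exposed to compounds for one week before readout.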
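For viability, T/C in this document: 100% = DMSO vehicle control wells.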

SMILES: C=CC(=O)N1CCN(c2nc(=O)n(-c3c(C)ccnc3C(C)C)c3nc(-c4c(O)cccc4F)c(F)cc23)C(C)C1 (stereo unspecified) + CN1CCN(c2cc(C(=O)Nc3cc4cc(-c5cnn(C)c5)ccc4cn3)ccn2)CC1
pIC50 [1]: < 5.00
pIC50 [2]: < 5.00
pIC50 [3]: > 7.50
pIC50 [4]: > 7.50
pIC50 [5]: > 7.50
pIC50 [6]: > 7.50
viability, T/C [7]: 118%
viability, T/C [8]: 143%
viability, T/C [9]: 122%
viability, T/C [10]: 98.4%
viability, T/C [11]: 113%
viability, T/C [12]: 99.8%
viability, T/C [13]: 172%
viability, T/C [14]: 199%
viability, T/C [15]: 161%
viability, T/C [16]: 234%
viability, T/C [17]: 167%
viability, T/C [18]: 77.3%
viability, T/C [19]: 4.67%
viability, T/C [20]: 7.3%
viability, T/C [21]: 6.68%
viability, T/C [22]: 5.29%
viability, T/C [23]: 3.14%
viability, T/C [24]: 1.35%
viability, T/C [25]: 0.18%
viability, T/C [26]: 3.35%
viability, T/C [27]: 0.19%
viability, T/C [28]: 0.19%
viability, T/C [29]: 0.18%
viability, T/C [30]: 0.21%
viability, T/C [31]: 2.2%
viability, T/C [32]: 0.99%
viability, T/C [33]: 0.31%
viability, T/C [34]: 0.31%
viability, T/C [35]: 0.72%
viability, T/C [36]: 0.51%
viability, T/C [37]: 0.46%
viability, T/C [38]: 0.29%
viability, T/C [39]: 1.59%
viability, T/C [40]: 0.39%
viability, T/C [41]: 0.98%
viability, T/C [42]: 0.57%

SMILES: O=c1[nH]cc(F)c(=O)[nH]1 + CN1CCN(c2cc(C(=O)Nc3cc4cc(-c5cnn(C)c5)ccc4cn3)ccn2)CC1
pIC50 [1]: 5.08
pIC50 [2]: 5.21
pIC50 [3]: > 7.50
pIC50 [4]: > 7.50
pIC50 [5]: > 7.50
pIC50 [6]: > 7.50
viability, T/C [7]: 124%
viability, T/C [8]: 113%
viability, T/C [9]: 103%
viability, T/C [10]: 143%
viability, T/C [11]: 83.8%
viability, T/C [12]: 43.2%
viability, T/C [13]: 150%
viability, T/C [14]: 167%
viability, T/C [15]: 159%
viability, T/C [16]: 166%
viability, T/C [17]: 69.1%
viability, T/C [18]: 36%
viability, T/C [19]: 4.49%
viability, T/C [20]: 7.16%
viability, T/C [21]: 4.59%
viability, T/C [22]: 5.49%
viability, T/C [23]: 4.38%
viability, T/C [24]: 3.92%
viability, T/C [25]: 0.14%
viability, T/C [26]: 0.31%
viability, T/C [27]: 1.1%
viability, T/C [28]: 0.1%
viability, T/C [29]: 2.13%
viability, T/C [30]: 0.12%
viability, T/C [31]: 0.24%
viability, T/C [32]: 1.5%
viability, T/C [33]: 0.14%
viability, T/C [34]: 0.16%
viability, T/C [35]: 0.18%
viability, T/C [36]: 2.35%
viability, T/C [37]: 0.67%
viability, T/C [38]: 0.21%
viability, T/C [39]: 0.25%
viability, T/C [40]: 0.21%
viability, T/C [41]: 1.51%
viability, T/C [42]: 0.31%

pIC50 (curve of compound): < 5.00
SMILES: CC(Nc1ccc2c(c1)OCCn1cc(N3C(=O)OCC3C(F)F)nc1-2)C(N)=O (stereo unspecified)
viability, T/C (compound 0.0316 µM): 106% and 109%
viability, T/C (compound 0.1 µM): 96.5% and 102%
viability, T/C (compound 0.316 µM): 99.4% and 98.8%
viability, T/C (compound 1 µM): 93% and 85.2%
viability, T/C (compound 3.16 µM): 92.2% and 93.3%
viability, T/C (compound 10 µM): 93.6% and 88.5%
